Source: patent publication US8183243B2, “Melanocortin receptor agonists” (LG Life Sciences Ltd., priority 2008, dated 2012)

What follows are compounds tested against T1, MC4R (Homo sapiens, UniProt P32245) (assay: MCR agonistic activity (luciferase assay / cAMP accumulation assay) on MC4R). Details: HEK cell lines expressing MC4R; method A (CRE-luciferase) or B (cAMP accumulation), not said which; read-out: EC50 value, agonistic activity to MC4R (range per group of Examples).
T1 construct: expressed in transfected cells; host or cells: HEK (Human Embryonic Kidney) permanent expression cell line HEK MC4R-Luc, co-expressing CRE-luciferase
T1 sequence (P32245 whole entry, species assumed): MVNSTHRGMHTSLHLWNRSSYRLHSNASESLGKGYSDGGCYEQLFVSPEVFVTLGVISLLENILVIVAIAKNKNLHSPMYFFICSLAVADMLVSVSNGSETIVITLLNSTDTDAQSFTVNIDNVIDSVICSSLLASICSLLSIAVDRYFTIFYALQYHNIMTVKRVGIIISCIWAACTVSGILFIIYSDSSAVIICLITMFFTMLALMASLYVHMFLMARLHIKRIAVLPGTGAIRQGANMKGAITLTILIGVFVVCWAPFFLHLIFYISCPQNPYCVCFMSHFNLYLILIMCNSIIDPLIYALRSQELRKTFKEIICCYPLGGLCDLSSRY
Assay type: cell-based
Method: Physiological activity of the compounds of the present invention was assessed by measuring agonistic activity as well as binding activity for melanocortin receptors (MCR) according to methods A and B explained as follows.
As one of the methods to measure MCR agonistic activity of the compound according to the present invention, the expression level of a marker gene (for example, luciferase) which increases proportionally according to the increase of cAMP content in the cell, was measured.
First, permanent expression HEK (Human Embryonic Kidney) cell lines (HEK MC1R-Luc, MC3R-Luc, MC4R-Luc or MC5R-Luc) expressing the MCR gene of each subtype together with luciferase gene (CRE-LUC) under the control of CRE (cAMP Response Element) were constructed. The above cell lines were incubated in an incubator with 6% CO2 atmosphere at 37° C. using selection medium, DMEM(Dulbecco's Modified Eagles Medium) containing 10% heat-inactivated fetal bovine serum (Gibco/BRL), 100 unit/ml, penicillin (Gibco/BRL), 100 unit/ml streptomycin (Gibco/BRL), and 200 μg/ml geneticin (G418) (Gibco/BRL). When the cell covered 70% of total surface of the culture dish with 100 mm diameter, the culture dish was rinsed one time with 10 ml Phosphate Buffered Saline(PBS) free of Ca^++ and Mg^++, and then 3 ml PBS solution containing 0.05% trypsin and 0.53 mM EDTA was added thereto. After the trypsin/EDTA solution was removed, the cell lines were incubated in an thermostatic incubator for 1 minute at 37° C., and resuspended in 10 ml selection medium and centrifuged for 5 minutes at 1500 rpm. The supernatant was discarded and the settled cells were resuspended in 5 ml selection medium free of Phenol Red. The resulting cell-suspension was plated onto each well of 96-well culture plates for Luminometer(Costar) with a concentration of 5×10^4 cell in 100 μl culture medium for each well and incubated in the incubator with 6% CO2 atmosphere at 37° C. for 18 hours. With MCR agonists (Example compounds) diluted stepwise using the above culture medium, the cells were treated under the condition of the final DMSO concentration not exceeding 1%, and incubated for 5 hours in the atmosphere of 6% CO2 at 37° C. Then, 50 μl Bright-Glo (Promega) was added to each well. After allowing the treated cells to be at room temperature for 15 minutes, luminescence was measured for each well by using luminometer (Victor). The level of luminescence induced by the stepwise-diluted agonist was converted to relative % value to those by the treatment of 10 nM NDP-MSH. The EC50 indicates the concentration of each agonist for inducing 50% of maximal luminescence by each agonist and this value was measured by a statistical software (Prizm).
B. cAMP Accumulation Assay
As another method to measure MCR agonistic activity of the compound according to the present invention, an increase of cAMP amount in the cell was measured.
First, permanent expression HEK (Human Embryonic Kidney) cell lines (HEK MC1R-Luc, MC3R-Luc, MC4R-Luc or MCSR-Luc) expressing the MCR gene of each subtype were plated onto each well of 24-well culture plates for Luminometer(Costar) with a concentration of 2×10^5 cell in 1 ml culture medium for each well, and then incubated in an incubator with 6% CO2 atmosphere at 37° C. for 24 hours. The medium was removed from each well followed by rinsing with 0.5 ml cold DMEM one time. With MCR agonists (Example compounds) diluted stepwise using 200 μl DMEM including 500 μM IBMX (isobutylmethylxanthine), the cells were treated under the condition of the final DMSO concentration not exceeding 1%, and incubated for 30 minutes in the atmosphere of 6% CO2 at 37° C. Then, the cAMP amount in each cell was measured using Amersham cAMP assay Kit (TRK432).
More specifically, 14.4 μl of 6M PCA (60%) was added to each well, and allowed to be in ice for 10 minutes, and 200 μl sample was taken from each well and transferred to microcentrifuge tube. […]

Row | EC50 | Compound
1 | 0.1 to 10 nM | CC(=O)N([C@H]1C[C@H](C(=O)N2CCN(C)CC2)N(C(=O)[C@@H]2CN(C(C)(C)C)C[C@H]2c2ccc(Cl)cc2)C1)[C@H]1CC[C@@H](C)CC1 [Example 37, N-{(3S,5R)-1-{[(3S,4R)-1-tert-butyl-4-(4-chlorophenyl)pyrrolidin-3-yl]carbonyl}-5-[(4-methylpiperazin-1-yl)carbonyl]pyrrolidin-3-yl}-N-(cis-4-methylcyclohexyl)acetamide]
2 | 0.1 to 10 nM | CN1CCN(C(=O)[C@@H]2C[C@H](N(C(=O)C(C)(C)CO)C3CCC(C)(C)CC3)CN2C(=O)[C@@H]2CN(C(C)(C)C)C[C@H]2c2ccc(F)cc2F)CC1 [Example 15, N-{(3S,5S)-1-{[(3S,4R)-1-tert-butyl-4-(2,4-difluorophenyl)pyrrolidin-3-yl]carbonyl}-5-[(4-methylpiperazin-1-yl)carbonyl]pyrrolidin-3-yl}-N-(4,4-dimethylcyclohexyl)-3-hydroxy-2,2-dimethylpropanamide]
3 | 0.1 to 10 nM | CN1CCN(C(=O)[C@@H]2C[C@H](N(C(=O)C(C)(C)C)[C@H]3CC[C@@H](C)CC3)CN2C(=O)[C@@H]2CN(C3CCOCC3)C[C@H]2c2ccc(F)cc2F)CC1 [Example 53, N-{(3S,5S)-1-{[(3S,4R)-4-(2,4-difluorophenyl)-1-(tetrahydro-2H-pyran-4-yl)pyrrolidin-3-yl]carbonyl}-5-[(4-methylpiperazin-1-yl)carbonyl]pyrrolidin-3-yl}-2,2-dimethyl-N-(cis-4-methylcyclohexyl)propanamide]
4 | 0.1 to 10 nM | CN1CCN(C(=O)[C@H]2C[C@H](N(C(=O)C(C)(C)CO)[C@H]3CC[C@@H](C)CC3)CN2C(=O)[C@@H]2CN(C(C)(C)C)C[C@H]2c2ccc(Cl)cc2)CC1 [Example 36, N-{(3S,5R)-1-{[(3S,4R)-1-tert-butyl-4-(4-chlorophenyl)pyrrolidin-3-yl]carbonyl}-5-[(4-methylpiperazin-1-yl)carbonyl]pyrrolidin-3-yl}-3-hydroxy-2,2-dimethyl-N-(cis-4-methylcyclohexyl)propanamide]
5 | 0.1 to 10 nM | CN1CCN(C(=O)[C@@H]2C[C@H](N(C(=O)C(C)(C)CO)C3CCC(C)(C)CC3)CN2C(=O)[C@@H]2CN(C(C)(C)C)C[C@H]2c2ccc(Cl)cc2)CC1 [Example 4, N-{(3S,5S)-1-{[(3S,4R)-1-tert-butyl-4-(4-chlorophenyl)pyrrolidin-3-yl]carbonyl}-5-[(4-methylpiperazin-1-yl)carbonyl]pyrrolidine-3-yl}-N-(4,4-dimethylcyclohexyl)-3-hydroxy-2,2-dimethylpropanamide]
6 | 10 to 100 nM | CN1CCN(C(=O)[C@@H]2C[C@H](N(C(=O)[C@@H]3CCCO3)[C@H]3CC[C@@H](C)CC3)CN2C(=O)[C@@H]2CN(c3ccc(Cl)nn3)C[C@H]2c2ccc(F)cc2F)CC1 [Example 44, (2S)-N-{(3S,5S)-1-{[(3S,4R)-4-(2,4-difluorophenyl)-1-(6-chloropyridazin-3-yl)pyrrolidin-3-yl]carbonyl}-5-[(4-methylpiperazin-1-yl)carbonyl]pyrrolidin-3-yl}-N-(cis-4-methylcyclohexyl)tetrahydrofuran-2-carboxamide]
7 | 0.1 to 10 nM | CN1CCN(C(=O)[C@@H]2C[C@H](N(C(=O)c3ccoc3)[C@H]3CC[C@@H](C)CC3)CN2C(=O)[C@@H]2CN(C(C)(C)C)C[C@H]2c2ccc(F)cc2F)CC1 [Example 24, N-{(3S,5S)-1-{[(3S,4R)-1-tert-butyl-4-(2,4-difluorophenyl)pyrrolidin-3-yl]carbonyl}-5-[(4-methylpiperazin-1-yl)carbonyl]pyrrolidin-3-yl}-N-(cis-4-methylcyclohexyl)-3-furamide]
8 | 0.1 to 10 nM | CC(=O)N(C1CCC(C)(C)CC1)[C@H]1C[C@@H](C(=O)N2CCN(C(C)C)CC2)N(C(=O)[C@@H]2CN(C(C)(C)C)C[C@H]2c2ccc(Cl)cc2)C1 [Example 9, N-{(3S,5S)-1-{[(3S,4R)-1-tert-butyl-4-(4-chlorophenyl)pyrrolidin-3-yl]carbonyl}-5-[(4-isopropylpiperazin-1-yl)carbonyl]pyrrolidin-3-yl}-N-(4,4-dimethylcyclohexyl)acetamide]
9 | 0.1 to 10 nM | CCN1CCN(C(=O)[C@@H]2C[C@H](N(C(=O)[C@@H]3CCCO3)[C@H]3CC[C@@H](C)CC3)CN2C(=O)[C@@H]2CN(C(C)(C)C)C[C@H]2c2ccc(Cl)cc2)CC1 [Example 22, (2S)-N-{(3S,5S)-1-{[(3S,4R)-1-tert-butyl-4-(4-chlorophenyl)pyrrolidin-3-yl]carbonyl}-5-[(4-ethylpiperazin-1-yl)carbonyl]pyrrolidin-3-yl}-N-(cis-4-methylcyclohexyl)tetrahydrofuran-2-carboxamide]
10 | 10 to 100 nM | Cc1ccc(N2C[C@@H](C(=O)N3C[C@@H](N(C(=O)C(C)(C)C)C4CCC(C)(C)CC4)C[C@H]3C(=O)N3CCN(C)CC3)[C@H](c3ccc(Cl)cc3)C2)nn1 [Example 63, N-{(3S,5S)-1-{[(3S,4R)-4-(4-chlorophenyl)-1-(6-methylpyridazine-3-yl)pyrrolidin-3-yl]carbonyl}-5-[(4-methylpiperazin-1-yl)carbonyl]pyrrolidin-3-yl}-N-(4,4-dimethylcyclohexyl)-2,2-dimethylpropanamide]
11 | 0.1 to 10 nM | CC(=O)N(C1CCC(C)(C)CC1)[C@H]1C[C@@H](C(=O)N2CCNCC2)N(C(=O)[C@@H]2CN(C(C)(C)C)C[C@H]2c2ccc(F)cc2F)C1 [Example 2, N-[(3S,5S)-1-{[(3S,4R)-1-tert-butyl-4-(2,4-difluorophenyl)pyrrolidin-3-yl]carbonyl}-5-(piperazin-1-ylcarbonyl)pyrrolidin-3-yl]-N-(4,4-dimethylcyclohexyl)acetamide]
12 | 10 to 100 nM | CC(=O)N(C1CCC(C)(C)CC1)[C@H]1C[C@@H](C(=O)N2CCN(C(C)C)CC2)N(C(=O)[C@@H]2CN(C(C)(C)C)C[C@H]2c2ccc(F)cc2F)C1 [Example 7, N-{(3S,5S)-1-{[(3S,4R)-1-tert-butyl-4-(2,4-difluorophenyl)pyrrolidin-3-yl]carbonyl}-5-[(4-isopropylpiperazin-1-yl)carbonyl]pyrrolidin-3-yl}-N-(4,4-dimethylcyclohexyl)acetamide]
13 | 10 to 100 nM | CN1CCN(C(=O)[C@@H]2C[C@H](N(C(=O)[C@@H]3CCCO3)[C@H]3CC[C@@H](C)CC3)CN2C(=O)[C@@H]2CN(C3CC3)C[C@H]2c2ccc(Cl)cc2)CC1 [Example 56, (2S)-N-{(3S,5S)-1-{[(3S,4R)-4-(4-chlorophenyl)-1-cyclopropylpyrrolidin-3-yl]carbonyl}-5-[(4-methylpiperazin-1-yl)carbonyl]pyrrolidin-3-yl}-N-(cis-4-methylcyclohexyl)tetrahydrofuran-2-carboxamide]
14 | 10 to 100 nM | CN1CCN(C(=O)[C@@H]2C[C@H](N(C(=O)[C@@H]3CCCO3)c3ccc(F)cc3F)CN2C(=O)[C@@H]2CN(C(C)(C)C)C[C@H]2c2ccc(Cl)cc2)CC1 [Example 77, (2S)-N-{(3S,5S)-1-{[(3S,4R)-1-tert-butyl-4-(4-chlorophenyl)pyrrolidin-3-yl]carbonyl}-5-[(4-methylpiperazin-1-yl)carbonyl]pyrrolidin-3-yl}-N-(2,4-difluorophenyl)tetrahydrofuran-2-carboxamide]

Same assay, conditions: specific activities of representative compounds; HEK cell lines expressing MC4R; method A or B, not said which; read-out: EC50

Row | EC50 | Compound
15 | 0.2 nM | CN1CCN(C(=O)[C@@H]2C[C@H](N(C(=O)C(C)(C)CO)C3CCC(C)(C)CC3)CN2C(=O)[C@@H]2CN(C(C)(C)C)C[C@H]2c2ccc(Cl)cc2)CC1 [Example 4, N-{(3S,5S)-1-{[(3S,4R)-1-tert-butyl-4-(4-chlorophenyl)pyrrolidin-3-yl]carbonyl}-5-[(4-methylpiperazin-1-yl)carbonyl]pyrrolidine-3-yl}-N-(4,4-dimethylcyclohexyl)-3-hydroxy-2,2-dimethylpropanamide]
16 | 6 nM | CC(=O)N(C1CCC(C)(C)CC1)[C@H]1C[C@@H](C(=O)N2CCNCC2)N(C(=O)[C@@H]2CN(C(C)(C)C)C[C@H]2c2ccc(F)cc2F)C1 [Example 2, N-[(3S,5S)-1-{[(3S,4R)-1-tert-butyl-4-(2,4-difluorophenyl)pyrrolidin-3-yl]carbonyl}-5-(piperazin-1-ylcarbonyl)pyrrolidin-3-yl]-N-(4,4-dimethylcyclohexyl)acetamide]
